One experiment deals with T1, CDK2 (Homo sapiens, UniProt P24941).
T1 construct: purchased Carna Company
The experiment is described as follows: CDK enzymology experiment in vitro, capillary mobility shift assay (MSA). Format: biochemical. Particulars: read-out: CDK2 (nM) inhibitory IC50. The protocol: (§1) CDK1/CDK2/CDK4/CDK6/CDK7/CDK9 were purchased from Carna Company; Carliper substrate CTD3/substrate 18/substrate 8 were purchased from Gil Biochemical Company; Dinaciclib/Palbociclib were purchased from Selleckchem Company; DMSO was purchased from Sigma Company; 384-well plates were purchased from Corning Company.
(§2) • (1) Preparation of 1×Kinase buffer. • (2) Preparation of compound concentration gradient: Test concentration of the test compound was started at 1 μM, 10 μM or 30 μM, 3-fold dilution, 10 concentrations, detected in duplicate. The test compound was diluted to a 100-fold final concentration with 100% DMSO solution in a 384 source plate. Liquid handler Echo 550 was used to transfer 250 nL of 100-fold final concentration of the compound to the target plate 384-well plate. […] The 384-well plate was centrifuged at 1000 rpm for 30 seconds, and shaken to mix uniformly. • (10) The conversion rate was read with Caliper EZ Reader.
(§3) Where, conversion %_sample is the readings of conversion rate of the sample; conversion %_min: the average value of negative control wells, representing the readings of conversion rate of wells without enzyme activity; conversion %_max: the average value of positive control wells, representing the readings of conversion rate of wells without compound inhibition.
(§4) Taking the log value of the concentration as the X-axis, and the percentage inhibition rate as the Y-axis, the dose-effect curve was fitted using the log(inhibitor) vs. response—Variable slope of the analysis software GraphPad Prism 5 so as to obtain the IC50 value of each compound on the enzyme activity.
(§5) Y=Bottom+(Top−Bottom)/(1+10^((Log IC50−X)*HillSlope)). Calculation formula: […]

A further experiment deals with T2, CDK4 (Homo sapiens, UniProt P11802).
T2 construct: purchased Carna Company
T2 sequence (P11802 whole entry): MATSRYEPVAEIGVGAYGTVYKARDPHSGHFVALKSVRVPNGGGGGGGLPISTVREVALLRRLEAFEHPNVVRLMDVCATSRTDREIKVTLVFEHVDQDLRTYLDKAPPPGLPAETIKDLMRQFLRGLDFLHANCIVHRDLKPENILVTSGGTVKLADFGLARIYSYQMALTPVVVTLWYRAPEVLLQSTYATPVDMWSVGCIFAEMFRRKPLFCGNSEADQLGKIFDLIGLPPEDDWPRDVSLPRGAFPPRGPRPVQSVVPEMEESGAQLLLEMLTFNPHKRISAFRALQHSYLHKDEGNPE
T2 sequence (P30281 whole entry partner): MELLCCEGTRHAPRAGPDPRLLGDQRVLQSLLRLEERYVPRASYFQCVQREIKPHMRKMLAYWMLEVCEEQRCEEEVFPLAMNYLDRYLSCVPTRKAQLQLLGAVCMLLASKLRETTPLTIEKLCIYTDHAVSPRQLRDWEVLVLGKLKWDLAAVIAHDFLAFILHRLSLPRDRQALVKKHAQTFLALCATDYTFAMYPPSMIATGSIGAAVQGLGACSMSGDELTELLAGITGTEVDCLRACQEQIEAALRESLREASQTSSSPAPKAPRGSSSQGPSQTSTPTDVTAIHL
The description is as above. Format: biochemical. Conditions: read-out: CDK4 (nM) inhibitory IC50. The protocol: as §1, §2, §3, §4, §5

Structures are written as SMILES.

A word on the IC50: it is the concentration needed to halve the response being measured. In the case of `Cn1cc(S(=O)(=O)N2CCC(Nc3ncc(C#N)c(N[C@@H]4CCC[C@@]4(C)O)n3)CC2)cn1` (single isomer, unassigned) [Example 20], the 50% inhibitory concentration (IC50) on CDK2 lay within 10 to 50 nM; at CDK4 it was 100 to 1000 nM.

For `Cn1cc(-c2ccc(S(=O)(=O)N3CCC(Nc4ncc(C#N)c(N[C@@H]5CCC[C@H]5O)n4)CC3)cc2)cn1` [Compound 50], the IC50 lay within 0.5 to 2.5 nM on CDK2 and 10 to 50 nM at CDK4.

Turning to `Cn1cc(S(=O)(=O)N2CCC(Nc3ncc(C#N)c(O[C@@H]4CCOC4)n3)CC2)cn1` [Compound 89], the values for the IC50 on CDK2 and on CDK4 were 10 to 50 nM and 50 to 100 nM, respectively.

As to `Cn1cc(S(=O)(=O)N2CC[C@@H](Nc3ncc(C(F)(F)F)c(O[C@H]4CCOC4)n3)[C@@H](F)C2)cn1` [Compound 128], the IC50 was 10 to 50 nM on CDK2 and 100 to 1000 nM on CDK4.

In the case of `Cn1cc(-c2ccc(S(=O)(=O)N3CCC(Nc4ncc(C#N)c(N[C@H]5CCC[C@@H]5O)n4)CC3)cc2)cn1` [Compound 59], the IC50 at CDK2 and on CDK4 was 2.5 to 10 nM throughout.

Turning to `Cn1cc(S(=O)(=O)N2CCC(Nc3ncc(C#N)c(O[C@H]4CC[C@H](O)C4)n3)CC2)cn1` (relative stereo) [Compound 55], the IC50 at CDK2 is 2.5 to 10 nM; on CDK4, 10 to 50 nM.

In the case of `Cn1ccc(S(=O)(=O)N2CCC(Nc3ncc(C#N)c(NC4CCCC4)n3)CC2)n1` [Compound 33], the IC50 at CDK2 is 2.5 to 10 nM; at CDK4, 10 to 50 nM.

For the compound `Cn1cc(S(=O)(=O)N2CCC(Nc3ncc(C#N)c(SC4CCCC4)n3)CC2)cn1` [Compound 96], the values for the IC50 at CDK2 and at CDK4 were 0.5 to 2.5 nM and 2.5 to 10 nM, respectively.

Turning to `O=S(=O)(c1ccc(Br)cc1)N1CCC(Nc2ncc(C(F)(F)F)c(O[C@H]3CCOC3)n2)CC1` [Example 99], the IC50 fell in the range of 0.5 to 2.5 nM on CDK2 and 2.5 to 10 nM at CDK4.

Turning to `Cn1cc(-c2ccc(S(=O)(=O)N3CCC(Nc4cc(N[C@H]5CCOC5)c(C#N)cn4)CC3)cc2)cn1` [Compound 166], the IC50 at CDK2 lay within 0.5 to 2.5 nM; on CDK4, 2.5 to 10 nM.

Take `Cn1cc(S(=O)(=O)N2CCC(Nc3ncc(C(F)(F)F)c(O[C@@H]4CCOC4)n3)CC2)cn1` [Compound 88]: the IC50 is 0.5 to 2.5 nM on CDK2 and 10 to 50 nM on CDK4.

Turning to `Cn1cc(S(=O)(=O)N2CCC(Nc3ncc(C(F)(F)F)c(O[C@@H]4COC[C@@H]4F)n3)CC2)cn1` [Compound 124], the IC50 was 2.5 to 10 nM at CDK2 and 100 to 1000 nM at CDK4.

For `O=S(=O)(c1cn[nH]c1)N1CCC(Nc2ncc(C(F)(F)F)c(O[C@H]3CCOC3)n2)CC1` [Example 25], the half-inhibitory concentration (IC50) on CDK2 was < 0.5 nM; at CDK4 it was 2.5 to 10 nM.

For `Cn1cc(S(=O)(=O)N2CCC(Nc3ncc(C#N)c(NC4CCC4)n3)CC2)cn1` [Compound 76], the IC50 at CDK2 lay within 2.5 to 10 nM; on CDK4, 10 to 50 nM.

Consider `CC(C)n1cc(S(=O)(=O)N2CCC(Nc3ncc(C(F)(F)F)c(O[C@H]4CCOC4)n3)CC2)cn1` [Compound 110], for which the values for the 50% inhibitory concentration (IC50) at CDK2 and on CDK4 were 0.5 to 2.5 nM and 10 to 50 nM, respectively.

As to `CN1CC[C@H](Nc2nc(NC3CCN(S(=O)(=O)c4cnn(C)c4)CC3)ncc2C#N)C1` [Compound 72], the IC50 at CDK2 was 2.5 to 10 nM; at CDK4 it was 10 to 50 nM.

Regarding `C[C@H]1COCCN1c1nc(NC2CCN(S(=O)(=O)c3cnn(C)c3)CC2)ncc1C#N` [Compound 75], the IC50 on CDK2 and at CDK4 was 10 to 50 nM throughout.

As to `Cn1cc(-c2ccc(S(=O)(=O)N3CCC(Nc4ncc(C#N)c(N[C@@H]5CC[C@@H](O)C5)n4)CC3)cc2)cn1` (single isomer, unassigned) [Compound 63], the IC50 at CDK2 fell in the range of 0.5 to 2.5 nM; on CDK4 it was 2.5 to 10 nM.

Regarding `Cn1cc(S(=O)(=O)N2CCC(Nc3ncc(C(F)(F)F)c(O[C@H]4CCOC4)n3)C(F)(F)C2)cn1` (stereo partly shown) [Compound 129], the IC50 fell in the range of 2.5 to 10 nM on CDK2 and 10 to 50 nM at CDK4.

Consider `Cn1cc(S(=O)(=O)N2CCC(Nc3ncc(C(F)(F)F)c(N[C@@H]4CCC[C@H]4O)n3)CC2)cn1` [Compound 54], for which the IC50 at CDK2 lay in the range of 0.5 to 2.5 nM; at CDK4, 10 to 50 nM.

These data come from US20250009745A1, “CDK INHIBITOR” (SHANGHAI QILU PHARMACEUTICAL RESEARCH AND DEVELOPMENT …, priority 2021, published 2025).
